Data published in US12404289B2 (Gilead Sciences, Inc., priority 2020, dated 2025).
Where two headings read alike, the source gives them in different places.

Assays:
[1] = test system: Respiratory syncytial virus (RSV) strain A2; experiment: RSV antiviral assay (HEp-2, 96 well); format: cell-based; conditions: Table 3
SARS-CoV-2 = SARS-CoV-2 antiviral assay (A549-hACE2, Nano luciferase); format: cell-based; conditions: Table 4
[2] = read-out: EC50 RSV HEP2 96, HEp-2 cells, RSV A2, MOI=4, 4 days, 96 well
[3] = Severe acute respiratory syndrome coronavirus 2, 48 h, A549-hACE2 cells, SARS-CoV2-Nano, MOI 0.025, 48 h, read-out: EC50 SARS CoV2
[4] = human respiratory syncytial virus, HEp-2, 96 h, read-out: EC50 RSV HEP2 96, HEp-2 cells, RSV A2, MOI=4, 4 days, 96 well
[5] = A549-hACE2 cells, SARS-CoV2-Nano, MOI 0.025, 48 h, read-out: EC50 SARS CoV2

With `CC(=O)O[C@H]1[C@@H](OC(C)=O)[C@](C#N)(c2ccc3c(N)ncnn23)O[C@@H]1COP(=O)(N[C@@H](C)C(=O)OC1CCC1)Oc1ccc(C2CC2)cc1` (single isomer, unassigned) [Example 53b] the EC50 [1, 2] was 21.2 nM and the EC50 (SARS-CoV-2; [3]) was 103 nM.
In the case of `CCC(=O)O[C@H]1[C@@H](OC(=O)CC)[C@](C#N)(c2ccc3c(N)ncnn23)O[C@@H]1COP(=O)(N[C@@H](C)C(=O)OC1CCC1)Oc1ccc(C2CC2)cc1` (single isomer, unassigned) [Example 54a], the EC50 [1, 4] is reported as 13.1 nM and the EC50 (SARS-CoV-2; [3]) is reported as 102 nM.
For `CCC(=O)O[C@H]1[C@@H](OC(=O)CC)[C@](C#N)(c2ccc3c(N)ncnn23)O[C@@H]1COP(=O)(N[C@@H](C)C(=O)OC1CCC1)Oc1ccc(C2CC2)cc1` (single isomer, unassigned) [Example 54b], the EC50 [1, 2] was 20.9 nM and the EC50 (SARS-CoV-2; [5]) was 164 nM.
With `CCC(CC)COC(=O)[C@H](C)NP(=O)(OC[C@H]1O[C@@](C#N)(c2ccc3c(N)ncnn23)[C@H](OC(C)=O)[C@@H]1OC(C)=O)Oc1cccc2ccccc12` (single isomer, unassigned) [Example 78a] the EC50 [1, 2] was 65.2 nM and the EC50 (SARS-CoV-2; [5]) was 117 nM.
Work on `CCC(=O)O[C@H]1[C@@H](OC(=O)CC)[C@](C#N)(c2ccc3c(N)ncnn23)O[C@@H]1COP(=O)(N[C@@H](C)C(=O)OCC(CC)CC)Oc1cccc2ccccc12` (single isomer, unassigned) [Example 79a] yielded an EC50 [1, 2] of 61.2 nM and an EC50 (SARS-CoV-2; [5]) of 126 nM.
Work on `CCC(=O)O[C@H]1[C@@H](OC(=O)CC)[C@](C#N)(c2ccc3c(N)ncnn23)O[C@@H]1COP(=O)(N[C@@H](C)C(=O)OC1CC2(CCC2)C1)Oc1cccc2ccccc12` (single isomer, unassigned) [Example 87a] yielded an EC50 [1, 2] of 31.1 nM and an EC50 (SARS-CoV-2; [5]) of 60.2 nM.
Work on `C[C@H](NP(=O)(OC[C@H]1O[C@@](C#N)(c2ccc3c(N)ncnn23)[C@H](O)[C@@H]1O)Oc1cccc2ccccc12)C(=O)OC1CCC1` (single isomer, unassigned) [Intermediate P7a-2] yielded an EC50 [1, 2] of 65.1 nM and an EC50 (SARS-CoV-2; Severe acute respiratory syndrome coronavirus 2, 48 h, read-out: EC50 SARS CoV2, A549-hACE2 cells, SARS-CoV2-Nano, MOI 0.025, 48 h) of 275 nM.
Compound `C[C@H](NP(=O)(OC[C@H]1O[C@@](C#N)(c2ccc3c(N)ncnn23)[C@H](O)[C@@H]1O)Oc1ccc(C(C)(C)C)cc1)C(=O)OCC1CCC1` (stereo partly drawn) [Example 59, cyclobutylmethyl (2S)-2-[[[(2R,3S,4R,5R)-5-(4-aminopyrrolo[2,1-f][1,2,4]triazin-7-yl)-5-cyano-3,4-dihydroxy-tetrahydrofuran-2-yl]methoxy-(4-tert-butylphenoxy)phosphoryl]amino]propanoate] has an EC50 [1, 4] of 25.3 nM and an EC50 (SARS-CoV-2; [3]) of 160 nM.
Work on `CC(C)C(=O)O[C@H]1[C@@H](OC(=O)C(C)C)[C@](C#N)(c2ccc3c(N)ncnn23)O[C@@H]1COP(=O)(N[C@@H](C)C(=O)OCC1CCC1)Oc1ccc(C(C)(C)C)cc1` (stereo partly drawn) [Example 60, [(2R,3R,4R,5R)-5-(4-aminopyrrolo[2,1-f][1,2,4]triazin-7-yl)-2-[[(4-tert-butylphenoxy)-[[(1S)-2-(cyclobutylmethoxy)-1-methyl-2-oxo-ethyl]amino]phosphoryl]oxymethyl]-5-cyano-4-(2-methylpropanoyloxy)tetrahydrofuran-3-yl] 2-methylpropanoate] yielded an EC50 [1, 4] of 64 nM and an EC50 (SARS-CoV-2; [3]) of 180 nM.
With `CC(C)C(=O)O[C@H]1[C@@H](OC(=O)C(C)C)[C@](C#N)(c2ccc3c(N)ncnn23)O[C@@H]1COP(=O)(N[C@@H](C)C(=O)OC1CC2(CCC2)C1)Oc1ccc(C(C)(C)C)cc1` (stereo partly drawn) [Example 66, [(2R,3R,4R,5R)-5-(4-aminopyrrolo[2,1-f][1,2,4]triazin-7-yl)-2-[[(4-tert-butylphenoxy)-[[(1S)-1-methyl-2-oxo-2-spiro[3.3]heptan-2-yloxy-ethyl]amino]phosphoryl]oxymethyl]-5-cyano-4-(2-methylpropanoyloxy)tetrahydrofuran-3-yl] 2-methylpropanoate] the EC50 [1, 4] was 61.9 nM and the EC50 (SARS-CoV-2; [3]) was 207 nM.
Compound `CCC(CC)COC(=O)[C@H](C)NP(=O)(OC[C@H]1O[C@@](C#N)(c2ccc3c(N)ncnn23)[C@H](OC(=O)C(C)C)[C@@H]1OC(=O)C(C)C)Oc1cccc2ccccc12` (stereo partly drawn) [Example 70, [(2R,3R,4R,5R)-5-(4-aminopyrrolo[2,1-f][1,2,4]triazin-7-yl)-5-cyano-2-[[[[(1S)-2-(2-ethylbutoxy)-1-methyl-2-oxo-ethyl]amino]-(1-naphthyloxy)phosphoryl]oxymethyl]-4-(2-methylpropanoyloxy)tetrahydrofuran-3-yl] 2-methylpropanoate] has an EC50 [1, 4] of 49 nM and an EC50 (SARS-CoV-2; [3]) of 319 nM.
`CCC(=O)O[C@H]1[C@@H](OC(=O)CC)[C@](C#N)(c2ccc3c(N)ncnn23)O[C@@H]1COP(=O)(N[C@@H](C)C(=O)OC1CCC1)Oc1ccccc1` (stereo partly drawn) [Example 107, (2R,3R,4R,5R)-2-(4-aminopyrrolo[2,1-f][1,2,4]triazin-7-yl)-2-cyano-5-((((((S)-1-cyclobutoxy-1-oxopropan-2-yl)amino)(phenoxy)phosphoryl)oxy)methyl)tetrahydrofuran-3,4-diyl Dipropionate] gave an EC50 [1, 4] of 20.1 nM and an EC50 (SARS-CoV-2; [3]) of 180 nM.
For `CCOC(=O)[C@H](C)NP(=O)(OC[C@H]1O[C@@](C#N)(c2ccc3c(N)ncnn23)[C@H](OC(=O)CC)[C@@H]1OC(=O)CC)Oc1ccc(C(C)(C)C)cc1` (stereo partly drawn) [Example 108, (2R,3R,4R,5R)-2-(4-aminopyrrolo[2,1-f][1,2,4]triazin-7-yl)-5-((((4-(tert-butyl)phenoxy)(((S)-1-ethoxy-1-oxopropan-2-yl)amino)phosphoryl)oxy)methyl)-2-cyanotetrahydrofuran-3,4-diyl Dipropionate], the EC50 [1, 4] was 27.7 nM and the EC50 (SARS-CoV-2; [3]) was 82.9 nM.
With `CCC(=O)O[C@H]1[C@@H](OC(=O)CC)[C@](C#N)(c2ccc3c(N)ncnn23)O[C@@H]1COP(=O)(N[C@@H](C)C(=O)OC)Oc1ccc(C(C)(C)C)cc1` (stereo partly drawn) [Example 113, (2R,3R,4R,5R)-2-(4-aminopyrrolo[2,1-f][1,2,4]triazin-7-yl)-5-((((4-(tert-butyl)phenoxy)(((S)-1-methoxy-1-oxopropan-2-yl)amino)phosphoryl)oxy)methyl)-2-cyanotetrahydrofuran-3,4-diyl Dipropionate] the EC50 [1, 4] was 22.1 nM and the EC50 (SARS-CoV-2; [3]) was 126 nM.
In the case of `CC(C)COC(=O)[C@H](C)NP(=O)(OC[C@H]1O[C@@](C#N)(c2ccc3c(N)ncnn23)[C@H](O)[C@@H]1O)Oc1ccc(C(C)(C)C)cc1` (stereo partly drawn) [Example 118, isobutyl ((((2R,3S,4R,5R)-5-(4-aminopyrrolo[2,1-f][1,2,4]triazin-7-yl)-5-cyano-3,4-dihydroxytetrahydrofuran-2-yl)methoxy)(4-(tert-butyl)phenoxy)phosphoryl)-L-alaninate], the EC50 [1, 4] is reported as 23.5 nM and the EC50 (SARS-CoV-2; [3]) is reported as 329 nM.
Work on `CCC(C)(C)COC(=O)[C@H](C)NP(=O)(OC[C@H]1O[C@@](C#N)(c2ccc3c(N)ncnn23)[C@H](O)[C@@H]1O)Oc1ccc(C(C)(C)C)cc1` (stereo partly drawn) [Example 121, 2,2-dimethylbutyl ((((2R,3S,4R,5R)-5-(4-aminopyrrolo[2,1-f][1,2,4]triazin-7-yl)-5-cyano-3,4-dihydroxytetrahydrofuran-2-yl)methoxy)(4-(tert-butyl)phenoxy)phosphoryl)-L-alaninate] yielded an EC50 [1, 4] of 23.5 nM and an EC50 (SARS-CoV-2; [3]) of 110 nM.
In the case of `CCOC(=O)[C@H](C)NP(=O)(OC[C@H]1O[C@@](C#N)(c2ccc3c(N)ncnn23)[C@H](O)[C@@H]1O)Oc1cccc2ccccc12` (stereo partly drawn) [Intermediate S1, ethyl (2S)-2-[[[(2R,3S,4R,5R)-5-(4-aminopyrrolo[2,1-f][1,2,4]triazin-7-yl)-5-cyano-3,4-dihydroxy-tetrahydrofuran-2-yl]methoxy-(1-naphthyloxy)phosphoryl]amino]propanoate], the EC50 [1, 4] is reported as 93.3 nM and the EC50 (SARS-CoV-2; [3]) is reported as 714 nM.
